Laboratory results taken from ChEMBL document CHEMBL3860052, “Anti-influenza activity of monoterpene-derived substituted hexahydro-2H-chromenes” (Bioorg Med Chem, 2016).
≈ marks a conversion by molar mass, not a printed value.

Key:
[1] = Antiviral activity against Influenza A virus (A/California/07/09(H1N1)) pdm09 infected in chicken erythrocytes incubated for 1 hr with supernatants from 1 hr compound pre-treated MDCK cells infected with Influenza A virus (A/California/07/2009(H1N1)) pdm09 for 48 hrs assessed as reduction in viral replication by hemagglutination assay; type: functional, cell-based
[2] = Cytotoxicity against MDCK cells assessed as reduction in cell viability after 48 hrs by MTT assay; type: toxicity, cell-based, Canis lupus familiaris; settings: dog
[3] = Selectivity index, ratio of CC50 for MDCK cells to IC50 for Influenza A virus (A/California/07/09(H1N1)) pdm09; type: functional
[4] = Antiviral activity against Influenza A virus (A/California/07/2009(H1N1)); type: functional

| SMILES | IC50 [1] [µM] | CC50 at 48 h [2] [µM] | Ratio CC50/IC50 [3] | IC50 [4] [µg/mL] |
| --- | --- | --- | --- | --- |
| CC(N)C12CC3CC(CC(C3)C1)C2 (centres undefined) [RIMANTADINE] | 44 | 350 | 8 |  |
| C=C(C)[C@@H]1CC=C(C)[C@@H](O)[C@@H]1O |  |  |  | 20 (≈ 119 µM) |
